For 26 molecules, IC50 results are on record in patent US20110224210A1, “NOVEL BIS-AMIDES AS ANTI-MALARIAL AGENTS” (priority 2008, published 2011).

The test system of this assay is P. falciparum K1 (strain resistant to chloroquine and pyrimethamine), erythrocytic stages. Briefly: Plasmodium falciparum in vitro assay, [3H] hypoxanthine incorporation. The format is cell-based. The following applies: Plasmodium falciparum, K1, P. falciparum strain K1; [3H] hypoxanthine incorporation; read-out: IC50 (nM) on K1. An outline of the steps:
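K1 strain parasites grown in human red cells, 2.5% haematocrit, 0.3% parasitaemia, 37 °C, 4% CO2/3% O2; compounds in seven serial doubling dilutions.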
As for `CC(=O)N1CCN(c2ccc(CN(C(=O)C=Cc3ccc(C(F)(F)F)cc3)[C@@H](Cc3ccccc3)C(=O)N(C)CCOCCOCc3ccccc3)cc2)CC1` [Example 210, (S)-N-[4-(4-Acetyl-piperazin-1-yl)-benzyl]-N-(1-{[2-(2-benzyloxy-ethoxy)-ethyl]-methyl-carbamoyl}-2-phenyl-ethyl)-3-(4-trifluoromethyl-phenyl)-acrylamide], the IC50 was determined as 28 nM.

Turning to `COCCN(C)C(=O)C(CN1CCOCC1)N(Cc1ccc(-c2ccccn2)cc1)C(=O)C=Cc1ccc(C(F)(F)F)cc1` (racemic) [Example 279], the half-inhibitory concentration (IC50) was < 8 nM.

As to `COCCN(C)C(=O)[C@H](Cc1ccccc1)N(Cc1ccc(N2CCOCC2)cc1)C(=O)C=Cc1nc(C)oc1C` [Example 65, (S)-3-(2,5-Dimethyl-oxazol-4-yl)-N-{1-[(2-methoxy-ethyl)-methyl-carbamoyl]-2-phenyl-ethyl}-N-(4-morpholin-4-yl-benzyl)-acrylamide], the IC50 came out at 269 nM.

For the molecule `CC(=O)N1CCN(c2ccc(CN(C(=O)C=Cc3ccc(C(F)(F)F)cc3)[C@@H](Cc3ccccc3)C(=O)N(C)CCN(C)Cc3cccc(OCCO)c3)cc2)CC1` [Example 242, (S)-N-[4-(4-Acetyl-piperazin-1-yl)-benzyl]-N-{1-[(2-{[3-(2-hydroxy-ethoxy)-benzyl]-methyl-amino}-ethyl)-methyl-carbamoyl]-2-phenyl-ethyl}-3-(4-trifluoromethyl-phenyl)-acrylamide], the IC50 stood at 14 nM.

Regarding `CN(CCN(C)C(=O)[C@H](Cc1ccccc1)N(Cc1ccc(N2CCOCC2)cc1)C(=O)C=Cc1ccc(C(F)(F)F)cc1)Cc1cncnc1` [Example 267, (S)-N-(1-{Methyl-[2-(methyl-pyrimidin-5-ylmethyl-amino)-ethyl]-carbamoyl}-2-phenyl-ethyl)-N-(4-morpholin-4-yl-benzyl)-3-(4-trifluoromethyl-phenyl)-acrylamide], the IC50 is 40 nM.

For `CN(CCN(C)C(=O)[C@H](Cc1ccccc1)N(Cc1ccc(N2CCOCC2)cc1)C(=O)C=Cc1ccc(C(F)(F)F)cc1)Cc1ccc(N(C)CCO)cc1` [Example 255, (S)-N-(1-{[2-({4-[(2-Hydroxy-ethyl)-methyl-amino]-benzyl}-methyl-amino)-ethyl]-methyl-carbamoyl}-2-phenyl-ethyl)-N-(4-morpholin-4-yl-benzyl)-3-(4-trifluoromethyl-phenyl)-acrylamide], the IC50 worked out at 59 nM.

Take `Cc1noc(C)c1C=CC(=O)N(Cc1ccc(-c2ccccn2)cc1)[C@@H](Cc1ccccc1)C(=O)N1CCC(N(C)C)CC1` [Example 12, (S)-N-[1-Benzyl-2-(4-dimethylamino-piperidin-1-yl)-2-oxo-ethyl]-3-(3,5-dimethyl-isoxazol-4-yl)-N-(4-pyridin-2-yl-benzyl)-acrylamide]: the IC50 was 220 nM.

In the case of `COCCN(C)C(=O)[C@H](Cc1ccccc1)N(Cc1ccc(-c2ccccn2)cc1)C(=O)C=Cc1csc(C)n1` [Example 78, (S)-N-{1-[(2-Methoxy-ethyl)-methyl-carbamoyl]-2-phenyl-ethyl}-3-(2-methyl-thiazol-4-yl)-N-(4-pyridin-2-yl-benzyl)-acrylamide], the IC50 came to 47 nM.

With `CN(C)C1CCN(C(=O)[C@H](Cc2ccccc2)N(Cc2ccc(-c3cncnc3)cc2)C(=O)C=Cc2ccc(Cl)nc2)CC1` [Example 40, (S)-N-[1-Benzyl-2-(4-dimethylamino-piperidin-1-yl)-2-oxo-ethyl]-3-(6-chloro-pyridin-3-yl)-N-(4-pyrimidin-5-yl-benzyl)-acrylamide], the IC50 is 490 nM.

As for `COc1ccc(C=CC(=O)N(Cc2ccc(N3CCOCC3)nc2)[C@@H](Cc2ccccc2)C(=O)N2CCC(Cc3ccccc3)CC2)cc1` [Example 145, (S)-N-[1-Benzyl-2-(4-benzyl-piperidin-1-yl)-2-oxo-ethyl]-3-(4-methoxy-phenyl)-N-(6-morpholin-4-yl-pyridin-3-ylmethyl)-acrylamide], the half-inhibitory concentration (IC50) was 5 nM.

Regarding `COc1cc(CN(C)CCN(C)C(=O)[C@H](Cc2ccccc2)N(Cc2ccc(N3CCOCC3)cc2)C(=O)C=Cc2ccc(C(F)(F)F)cc2)cc(OC)c1` [Example 235, (S)-N-[1-({2-[(3,5-Dimethoxy-benzyl)-methyl-amino]-ethyl}-methyl-carbamoyl)-2-phenyl-ethyl]-N-(4-morpholin-4-yl-benzyl)-3-(4-trifluoromethyl-phenyl)-acrylamide], the IC50 worked out at 58 nM.

Regarding `Cc1ccc(COCCN(C)C(=O)[C@H](Cc2ccccc2)N(Cc2ccc(N3CCOCC3)cc2)C(=O)C=Cc2ccc(C(F)(F)F)cc2)c(C)c1` [Example 195, (S)-N-(1-{[2-(2,4-Dimethyl-benzyloxy)-ethyl]-methyl-carbamoyl}-2-phenyl-ethyl)-N-(4-morpholin-4-yl-benzyl)-3-(4-trifluoromethyl-phenyl)-acrylamide], the IC50 is 81 nM.

In the case of `COCCN(C)C(=O)[C@H](Cc1ccccc1)N(Cc1ccccn1)C(=O)C=Cc1ccc(C)cc1` [Example 162, (S)-N-{1-[(2-Methoxy-ethyl)-methyl-carbamoyl]-2-phenyl-ethyl}-N-pyridin-2-ylmethyl-3-p-tolyl-acrylamide], the 50% inhibitory concentration (IC50) is 45 nM.

As to `COCCN(C)C(=O)[C@H](Cc1ccccc1)N(Cc1ccc(-c2ccccn2)cc1)C(=O)C=Cc1ccc(OC)nn1` [Example 82, (S)-N-{1-[(2-Methoxy-ethyl)-methyl-carbamoyl]-2-phenyl-ethyl}-3-(6-methoxy-pyridazin-3-yl)-N-(4-pyridin-2-yl-benzyl)-acrylamide], the IC50 amounted to 99 nM.

Take `CC(=O)N1CCN(c2ccc(CN(C(=O)C=Cc3ccc(C(F)(F)F)cc3)[C@@H](Cc3ccccc3)C(=O)N(C)CCN(C)Cc3cccc(O)c3)cc2)CC1` [Example 240, (S)-N-[4-(4-Acetyl-piperazin-1-yl)-benzyl]-N-[1-({2-[(3-hydroxy-benzyl)-methyl-amino]-ethyl}-methyl-carbamoyl)-2-phenyl-ethyl]-3-(4-trifluoromethyl-phenyl)-acrylamide]: the IC50 came to 28 nM.

Regarding `COCCN(C)C(=O)[C@H](Cc1ccccc1)N(Cc1ccc(N2CCOCC2)cc1)C(=O)C=Cc1ccc(C(F)(F)F)cc1` [Example 179, (S)-N-{1-[(2-Methoxy-ethyl)-methyl-carbamoyl]-2-phenyl-ethyl}-N-(4-morpholin-4-yl-benzyl)-3-(4-trifluoromethyl-phenyl)-acrylamide, formic acid], the IC50 worked out at 9 nM.

In the case of `COc1ccc(CN(C)CCN(C)C(=O)[C@H](Cc2ccccc2)N(Cc2ccc(-c3ccccn3)cc2)C(=O)C=Cc2ccc(C(F)(F)F)cc2)cn1` [Example 229, (S)-N-[1-({2-[(6-Methoxy-pyridin-3-ylmethyl)-methyl-amino]-ethyl}-methyl-carbamoyl)-2-phenyl-ethyl]-N-(4-pyridin-2-yl-benzyl)-3-(4-trifluoromethyl-phenyl)-acrylamide], the IC50 is 9 nM.

For the molecule `COc1ccc(C=CC(=O)N(Cc2ccc(-c3ccncc3)cc2)[C@@H](Cc2ccccc2)C(=O)N2CCC(N(C)C)CC2)cn1` [Example 29, (S)-N-[1-Benzyl-2-(4-dimethylamino-piperidin-1-yl)-2-oxo-ethyl]-3-(6-methoxy-pyridin-3-yl)-N-(4-pyridin-4-yl-benzyl)-acrylamide], the half-inhibitory concentration (IC50) came to 34 nM.

Take `COCCN(C)C(=O)[C@H](Cc1ccccc1)N(Cc1ccc(N2CCOCC2)cc1)C(=O)C=Cc1sc(C)nc1C` [Example 63, (S)-3-(2,4-Dimethyl-thiazol-5-yl)-N-{1-[(2-methoxy-ethyl)-methyl-carbamoyl]-2-phenyl-ethyl}-N-(4-morpholin-4-yl-benzyl)-acrylamide]: the IC50 was 87 nM.

On to `CC(=O)N1CCN(c2ccc(CN(C(=O)C=Cc3ccc(C(F)(F)F)cc3)[C@@H](Cc3ccccc3)C(=O)N(C)CCOCC(N)=O)cc2)CC1` [Example 213, (S)-N-[4-(4-Acetyl-piperazin-1-yl)-benzyl]-N-{1-[(2-carbamoylmethoxy-ethyl)-methyl-carbamoyl]-2-phenyl-ethyl}-3-(4-trifluoromethyl-phenyl)-acrylamide], for which the 50% inhibitory concentration (IC50) amounted to 72 nM.

For `CN(CCN(C)C(=O)[C@H](Cc1ccccc1)N(Cc1ccc(N2CCOCC2)cc1)C(=O)C=Cc1ccc(C(F)(F)F)cc1)Cc1ccncc1` [Example 270, (S)-N-(1-{Methyl-[2-(methyl-pyridin-4-ylmethyl-amino)-ethyl]-carbamoyl}-2-phenyl-ethyl)-N-(4-morpholin-4-yl-benzyl)-3-(4-trifluoromethyl-phenyl)-acrylamide], the half-inhibitory concentration (IC50) stood at 25 nM.

Regarding `COCCN(C)C(=O)C(Cc1ncccn1)N(Cc1ccc(-c2ccncc2)cc1)C(=O)C=Cc1ccc(C(F)(F)F)cc1` (racemic) [Example 170], the IC50 was found to be 192 nM.

In the case of `COCCN(C)C(=O)[C@H](Cc1ccccc1)N(Cc1ccc(-c2cncnc2)cc1)C(=O)C=Cc1ccn(C)n1` [Example 119, (S)-N-{1-[(2-Methoxy-ethyl)-methyl-carbamoyl]-2-phenyl-ethyl}-3-(1-methyl-1H-pyrazol-3-yl)-N-(4-pyrimidin-5-yl-benzyl)-acrylamide], the IC50 is 81 nM.

Turning to `CC(=O)N1CCN(c2ccc(CN(C(=O)C=Cc3ccc(C(F)(F)F)cc3)[C@@H](Cc3ccccc3)C(=O)N(C)CCOCc3ccc(OC(F)F)cc3)cc2)CC1` [Example 188, (S)-N-[4-(4-Acetyl-piperazin-1-yl)-benzyl]-N-(1-{[2-(4-difluoromethoxy-benzyloxy)-ethyl]-methyl-carbamoyl}-2-phenyl-ethyl)-3-(4-trifluoromethyl-phenyl)-acrylamide, formic acid], the IC50 came out at 53 nM.

For the molecule `COCCN(C)C(=O)[C@H](Cc1ccccc1)N(Cc1ccc(N2CCOCC2)cc1)C(=O)C=Cc1cc(C)nn1C` [Example 59, (S)-3-(2,5-Dimethyl-2H-pyrazol-3-yl)-N-{1-[(2-methoxy-ethyl)-methyl-carbamoyl]-2-phenyl-ethyl}-N-(4-morpholin-4-yl-benzyl)-acrylamide], the IC50 was 121 nM.

Regarding `Cc1ccc(CN(C)CCN(C)C(=O)[C@H](Cc2ccccc2)N(Cc2ccc(-c3ccccn3)cc2)C(=O)C=Cc2ccc(C(F)(F)F)cc2)c(C)c1` [Example 234, (S)-N-[1-({2-[(2,4-Dimethyl-benzyl)-methyl-amino]-ethyl}-methyl-carbamoyl)-2-phenyl-ethyl]-N-(4-pyridin-2-yl-benzyl)-3-(4-trifluoromethyl-phenyl)-acrylamide], the IC50 came to 64 nM.

One may read the IC50 as the concentration needed to halve the response being measured.
